ChEMBL document CHEMBL1201862, “PubChem BioAssay data set” (2004)
Calls of active or inactive are those of the source.

Assays:
MDCK = assay: antiviral activity against H1N1 influenza, dose response, cell-based, strain KY136 (AID 540257); type: functional; details: Canis lupus familiaris
Protein RecA = target: T1, Protein RecA (Mycobacterium tuberculosis, UniProt P9WHJ3); assay: Fluorescence Cell-Free Homogeneous Dose Retest to Identify Inhibitors of RecA-Intein Splicing Activity. [Related pubchem assays (depositor defined):AID2097, AID2223, AID489010, AID492950]; type: functional
T1 sequence (P9WHJ3 whole entry): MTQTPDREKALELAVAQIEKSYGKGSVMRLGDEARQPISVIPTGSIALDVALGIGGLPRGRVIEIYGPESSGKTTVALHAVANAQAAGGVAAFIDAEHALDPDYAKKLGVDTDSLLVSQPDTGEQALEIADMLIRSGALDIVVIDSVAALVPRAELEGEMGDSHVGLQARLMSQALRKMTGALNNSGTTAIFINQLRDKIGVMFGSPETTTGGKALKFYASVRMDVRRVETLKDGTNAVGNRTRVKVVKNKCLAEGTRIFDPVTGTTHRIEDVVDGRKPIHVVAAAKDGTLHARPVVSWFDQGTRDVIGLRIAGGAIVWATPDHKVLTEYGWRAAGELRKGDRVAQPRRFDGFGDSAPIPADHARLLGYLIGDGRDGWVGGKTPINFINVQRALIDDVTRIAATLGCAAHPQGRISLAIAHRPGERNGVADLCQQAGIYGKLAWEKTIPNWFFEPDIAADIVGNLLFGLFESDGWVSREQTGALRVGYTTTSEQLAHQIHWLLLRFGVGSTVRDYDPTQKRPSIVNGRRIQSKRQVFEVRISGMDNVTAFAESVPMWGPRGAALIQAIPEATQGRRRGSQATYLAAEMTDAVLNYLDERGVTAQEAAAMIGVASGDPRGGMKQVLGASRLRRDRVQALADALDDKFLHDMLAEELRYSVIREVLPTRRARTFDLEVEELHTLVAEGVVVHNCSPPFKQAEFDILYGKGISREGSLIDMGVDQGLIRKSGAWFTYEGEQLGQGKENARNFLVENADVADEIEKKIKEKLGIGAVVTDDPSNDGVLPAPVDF

[1] = target: T2, Replicative DNA helicase DnaB (Mycobacterium tuberculosis, UniProt P9WMR3); assay: DnaB intein splicing inhibitors, dose response, biochemical, cell-free fluorescence (AID 449749); type: functional
T2 sequence (P9WMR3 whole entry): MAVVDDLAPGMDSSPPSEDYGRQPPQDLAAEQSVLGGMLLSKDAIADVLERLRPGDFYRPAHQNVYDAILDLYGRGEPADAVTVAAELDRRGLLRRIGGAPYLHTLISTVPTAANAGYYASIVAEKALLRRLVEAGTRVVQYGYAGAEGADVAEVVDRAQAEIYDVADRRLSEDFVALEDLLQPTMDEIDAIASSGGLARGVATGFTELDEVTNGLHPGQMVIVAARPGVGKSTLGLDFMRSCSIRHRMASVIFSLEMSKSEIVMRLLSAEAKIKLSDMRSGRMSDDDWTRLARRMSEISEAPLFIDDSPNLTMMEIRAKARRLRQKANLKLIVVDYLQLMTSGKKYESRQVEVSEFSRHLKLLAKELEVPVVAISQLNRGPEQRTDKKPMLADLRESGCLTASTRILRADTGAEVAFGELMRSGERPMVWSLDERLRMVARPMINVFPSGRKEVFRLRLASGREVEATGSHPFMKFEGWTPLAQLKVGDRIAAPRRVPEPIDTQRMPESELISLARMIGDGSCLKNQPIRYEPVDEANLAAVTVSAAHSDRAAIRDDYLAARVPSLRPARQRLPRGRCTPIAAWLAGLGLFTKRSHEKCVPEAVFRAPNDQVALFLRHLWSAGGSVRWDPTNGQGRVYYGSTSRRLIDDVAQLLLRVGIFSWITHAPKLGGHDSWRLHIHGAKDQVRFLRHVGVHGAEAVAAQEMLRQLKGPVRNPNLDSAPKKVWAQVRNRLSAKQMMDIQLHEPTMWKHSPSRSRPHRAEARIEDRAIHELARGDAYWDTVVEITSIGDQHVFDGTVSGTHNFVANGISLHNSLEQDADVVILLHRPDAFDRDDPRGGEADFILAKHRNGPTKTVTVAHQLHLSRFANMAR

Cytochrome P450 1A2 = target: T3, Cytochrome P450 1A2 (Homo sapiens, UniProt P05177);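 also: PubChem cytochrome P450 panel assay, CYP1A2 panel member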
T3 sequence (P05177 whole entry): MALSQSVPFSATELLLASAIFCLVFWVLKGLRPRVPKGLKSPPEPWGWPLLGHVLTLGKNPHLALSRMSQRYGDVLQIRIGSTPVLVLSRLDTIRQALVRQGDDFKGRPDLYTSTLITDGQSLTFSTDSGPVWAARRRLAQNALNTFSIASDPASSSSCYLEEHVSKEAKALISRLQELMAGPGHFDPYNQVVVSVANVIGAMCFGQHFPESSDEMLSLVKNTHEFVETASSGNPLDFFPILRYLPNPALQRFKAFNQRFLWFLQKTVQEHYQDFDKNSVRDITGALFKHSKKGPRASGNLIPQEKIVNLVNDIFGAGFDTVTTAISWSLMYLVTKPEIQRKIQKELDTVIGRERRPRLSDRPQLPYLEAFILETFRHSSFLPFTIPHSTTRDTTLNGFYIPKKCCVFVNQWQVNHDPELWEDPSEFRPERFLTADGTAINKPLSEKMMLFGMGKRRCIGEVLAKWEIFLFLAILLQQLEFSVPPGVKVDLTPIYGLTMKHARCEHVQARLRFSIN

Cytochrome P450 2C19 = Cytochrome P450 2C19 (Homo sapiens, UniProt P33261); assay: Cytochrome panel assay with activity outcomes. Panel member name: p450-cyp2c19 Compounds with AC50 equal or less than 10 uM are considered active; type: functional; details: read-out: AC50
Cytochrome P450 2C9 = Cytochrome P450 2C9 (Homo sapiens, UniProt P11712)
Nonstructural protein 1 = Nonstructural protein 1 (Influenza A virus, UniProt Q194T2); type: functional, Influenza A virus (A/California/07/2009(H1N1))
[2] = target: T4, Short transient receptor potential channel 4 (Mus musculus, UniProt Q9QUQ5); assay: mouse TRPC4 channel activators, dose response, cell-based, HEK293 TRPC4/mu-opioid, Fluo-4 calcium (AID 434937); type: functional
T4 sequence (Q9QUQ5 whole entry): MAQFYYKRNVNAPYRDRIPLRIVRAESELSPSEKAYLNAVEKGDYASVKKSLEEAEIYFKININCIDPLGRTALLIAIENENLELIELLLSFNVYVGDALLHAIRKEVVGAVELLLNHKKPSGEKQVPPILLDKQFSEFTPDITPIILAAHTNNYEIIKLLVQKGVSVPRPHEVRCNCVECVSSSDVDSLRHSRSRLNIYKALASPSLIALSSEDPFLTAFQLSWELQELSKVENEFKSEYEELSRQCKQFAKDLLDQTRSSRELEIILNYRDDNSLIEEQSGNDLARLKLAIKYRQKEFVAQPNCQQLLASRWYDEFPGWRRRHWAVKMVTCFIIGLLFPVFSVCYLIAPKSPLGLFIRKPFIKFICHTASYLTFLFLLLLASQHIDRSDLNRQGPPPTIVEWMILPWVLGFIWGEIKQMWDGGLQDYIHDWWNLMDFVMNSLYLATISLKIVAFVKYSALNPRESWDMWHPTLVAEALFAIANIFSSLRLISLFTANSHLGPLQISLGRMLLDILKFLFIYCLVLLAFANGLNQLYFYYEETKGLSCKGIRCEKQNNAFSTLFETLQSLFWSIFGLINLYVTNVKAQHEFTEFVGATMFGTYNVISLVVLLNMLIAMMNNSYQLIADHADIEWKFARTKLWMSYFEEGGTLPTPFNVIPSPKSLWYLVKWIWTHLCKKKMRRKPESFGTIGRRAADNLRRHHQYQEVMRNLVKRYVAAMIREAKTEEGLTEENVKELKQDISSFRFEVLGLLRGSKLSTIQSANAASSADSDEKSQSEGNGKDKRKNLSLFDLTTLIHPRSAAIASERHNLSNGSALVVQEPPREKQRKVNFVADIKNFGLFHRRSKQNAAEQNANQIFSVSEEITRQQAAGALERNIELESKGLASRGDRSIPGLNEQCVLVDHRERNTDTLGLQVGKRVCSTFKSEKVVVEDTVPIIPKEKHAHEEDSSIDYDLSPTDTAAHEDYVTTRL

Mu-type opioid receptor = Mu-type opioid receptor (Homo sapiens, UniProt P35372); assay: (§1) Counterscreen for agonists of heterodimerization of the mu 1 (OPRM1) and delta 1 (OPRD1) opioid receptors: Luminescence-based cell-based high throughput dose response assay to identify agonists of OPRM1 homodimerization.; type: functional
[3] = target: 5-hydroxytryptamine receptor 5A (Homo sapiens, UniProt P47898); assay: Counterscreen for agonists of OPRM1-OPRD1 heterodimerization: luminescence-based cell-based high throughput dose response assay to identify agonists of 5-hydroxytryptamine (serotonin) 5A receptor (HTR5A). [Related pubchem assays (depositor defined):AID504326, AID504355, AID504692, AID504904, AID504905]; type: functional
[4] = target: Delta-type opioid receptor (Homo sapiens, UniProt P41143); assay: as §1, with “of OPRD1” for “of OPRM1”, “homodimerization. [Related pubchem assays (depositor defined):AID504326, AID504355, AID504692, AID504904, AID504905]” for “homodimerization.”; type: functional
[5] = target: Opioid receptors; mu & delta (Homo sapiens, UniProt P41143+P35372); assay: agonists of MOR-DOR heterodimerization, dose response, cell-based, luminescence (AID 588407); type: functional
[6] = target: Dual specificity protein phosphatase 3 (Homo sapiens, UniProt P51452); assay: SAR VHR1 Fluorescent Assay for In Vitro dose response studies Set 3. [Related pubchem assays (depositor defined):AID1654, AID1661, AID1878]; type: functional
[7] = Counterscreen for activators of the function of SWI/SNF related, matrix associated, actin dependent regulator of chromatin, subfamily a, member 2 (SMARCA2, BRM): Luminescence-based cell-based high throughput dose response assay to identify non-selective compounds using the VP16 reporter assay.; type: functional
[8] = target: T5, Serine/threonine-protein phosphatase (Candida dubliniensis (strain CD36 / CBS 7987 / NCPF 3949 / NRRLY-17841) (Yeast), UniProt B9W6M3); assay: calcineurin pathway inhibitors in yeast reporter, dose response, S. cerevisiae, CDRE-lacZ, luminescence, secondary (AID 2388); type: functional, cell-based;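 also: yeast reporter cells carrying a calcineurin-responsive lacZ construct stimulated with calcium chloride; luminescent beta-galactosidase reporter signal in whole cells rather than isolated phosphatase activity; potency for inhibition where a drop in reporter signal means calcineurin blockade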
T5 sequence (B9W6M3 whole entry): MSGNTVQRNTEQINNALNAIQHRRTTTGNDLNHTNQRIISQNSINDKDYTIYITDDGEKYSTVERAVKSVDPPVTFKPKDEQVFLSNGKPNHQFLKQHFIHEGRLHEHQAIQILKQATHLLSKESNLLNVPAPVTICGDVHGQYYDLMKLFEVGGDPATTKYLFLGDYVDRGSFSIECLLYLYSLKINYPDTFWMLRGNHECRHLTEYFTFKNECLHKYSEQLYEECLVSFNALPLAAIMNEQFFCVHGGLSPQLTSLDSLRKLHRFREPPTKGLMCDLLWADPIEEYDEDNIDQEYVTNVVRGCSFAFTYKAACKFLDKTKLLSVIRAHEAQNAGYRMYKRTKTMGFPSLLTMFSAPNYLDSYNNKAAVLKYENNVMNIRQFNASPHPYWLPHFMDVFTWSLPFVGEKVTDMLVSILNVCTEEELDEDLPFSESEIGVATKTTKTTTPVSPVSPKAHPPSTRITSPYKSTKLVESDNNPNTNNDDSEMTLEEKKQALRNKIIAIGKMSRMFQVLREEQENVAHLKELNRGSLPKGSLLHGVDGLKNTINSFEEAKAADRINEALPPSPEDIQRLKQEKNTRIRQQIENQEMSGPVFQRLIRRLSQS

[9] = target: SWI/SNF-related matrix-associated actin-dependent regulator of chromatin subfamily A member 2 (Homo sapiens, UniProt P51531); assay: Luminescence-based cell-based high throughput dose response assay to identify activators of the function of SWI/SNF related, matrix associated, actin dependent regulator of chromatin, subfamily a, member 2 (SMARCA2, BRM).; type: functional
HEK293 = assay: inhibitors of LMP1-driven NF-kB reporter, dose response, cell-based, HEK293, luciferase, cherry-pick (AID 588343); type: functional; details: Homo sapiens
cells [10] = type: functional, cell-based
cells [11] = type: functional, cell-based; remark: listed apart in the source
[12] = C. albicans growth with fluconazole, confirmation, fluorescence, retest (AID 2467); type: functional, cell-based
[13] = cytotoxicity in HEK-293T cells, dose response, cytotoxicity control for TCR NF-kB inhibitor project, luminescence, T-cell screen hits (AID 489026); type: functional, cell-based;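 also: cells exposed to compound about 14 hours before the viability readout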
[14] = target: Dual specificity tyrosine-phosphorylation-regulated kinase 1A (Rattus norvegicus, UniProt Q63470); type: biochemical, Homo sapiens
[15] = target: Photoreceptor-specific nuclear receptor (Homo sapiens, UniProt Q9Y5X4); type: functional, cell-based;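 also: CHO-S cells with Gal4-NCOR and VP16-NR2E3 two-hybrid luciferase reporter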
[16] = target: ATP-dependent molecular chaperone HSP82 (Candida albicans (strain WO-1) (Yeast), UniProt C4YTQ8); assay: loss of DOC-induced GRE-beta-galactosidase reporter signal, dose response, Hsp90 inhibitor project, S. cerevisiae, luminescence (AID 2400); type: functional, cell-based;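 also: beta-galactosidase luminescence from glucocorticoid response element reporter as proxy for Hsp90 function; inhibitor potency where signal loss means Hsp90 inhibition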
[17] = NIH-3T3 fibroblast cytotoxicity, dose response, cytotoxicity control, cell-based, fluorescence, Alamar Blue, secondary assay (AID 2327); type: functional;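 also: NIH-3T3 mouse fibroblasts cultured with fluconazole at 8 µg/mL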

Cytochrome P450 2C19, sequence (P33261 whole entry): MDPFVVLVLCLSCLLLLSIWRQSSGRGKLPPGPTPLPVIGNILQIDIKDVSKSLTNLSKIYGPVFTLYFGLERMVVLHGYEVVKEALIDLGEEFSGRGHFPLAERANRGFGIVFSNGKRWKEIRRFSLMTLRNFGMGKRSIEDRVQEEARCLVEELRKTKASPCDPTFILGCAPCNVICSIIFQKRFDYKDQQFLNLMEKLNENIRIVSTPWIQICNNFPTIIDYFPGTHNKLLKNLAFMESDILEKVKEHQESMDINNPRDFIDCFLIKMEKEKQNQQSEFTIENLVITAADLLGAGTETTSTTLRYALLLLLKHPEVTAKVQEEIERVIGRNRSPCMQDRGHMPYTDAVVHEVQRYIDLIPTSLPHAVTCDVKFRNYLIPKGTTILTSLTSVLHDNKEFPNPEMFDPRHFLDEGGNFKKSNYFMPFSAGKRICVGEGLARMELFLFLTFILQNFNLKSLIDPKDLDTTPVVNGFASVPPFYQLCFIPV
ATP-dependent molecular chaperone HSP82, sequence (C4YTQ8 whole entry): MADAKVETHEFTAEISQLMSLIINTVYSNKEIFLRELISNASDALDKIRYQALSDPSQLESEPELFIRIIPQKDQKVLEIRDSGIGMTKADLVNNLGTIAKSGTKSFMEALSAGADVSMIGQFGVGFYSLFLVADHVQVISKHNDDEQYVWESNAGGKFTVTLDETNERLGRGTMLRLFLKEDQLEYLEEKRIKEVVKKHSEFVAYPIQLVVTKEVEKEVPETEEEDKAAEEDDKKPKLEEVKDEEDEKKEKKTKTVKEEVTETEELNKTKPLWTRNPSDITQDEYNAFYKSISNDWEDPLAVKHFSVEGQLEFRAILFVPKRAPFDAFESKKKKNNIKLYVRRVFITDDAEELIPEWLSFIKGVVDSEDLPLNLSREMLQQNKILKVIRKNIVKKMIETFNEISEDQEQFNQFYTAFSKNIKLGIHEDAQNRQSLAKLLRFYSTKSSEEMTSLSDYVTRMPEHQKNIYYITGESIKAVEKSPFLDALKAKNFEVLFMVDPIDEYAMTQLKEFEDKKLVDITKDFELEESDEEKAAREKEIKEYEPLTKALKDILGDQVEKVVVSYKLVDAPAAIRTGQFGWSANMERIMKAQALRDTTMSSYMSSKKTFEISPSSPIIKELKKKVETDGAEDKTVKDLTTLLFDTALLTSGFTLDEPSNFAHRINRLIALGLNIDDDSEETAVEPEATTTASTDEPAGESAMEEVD
5-hydroxytryptamine receptor 5A, sequence (P47898 whole entry): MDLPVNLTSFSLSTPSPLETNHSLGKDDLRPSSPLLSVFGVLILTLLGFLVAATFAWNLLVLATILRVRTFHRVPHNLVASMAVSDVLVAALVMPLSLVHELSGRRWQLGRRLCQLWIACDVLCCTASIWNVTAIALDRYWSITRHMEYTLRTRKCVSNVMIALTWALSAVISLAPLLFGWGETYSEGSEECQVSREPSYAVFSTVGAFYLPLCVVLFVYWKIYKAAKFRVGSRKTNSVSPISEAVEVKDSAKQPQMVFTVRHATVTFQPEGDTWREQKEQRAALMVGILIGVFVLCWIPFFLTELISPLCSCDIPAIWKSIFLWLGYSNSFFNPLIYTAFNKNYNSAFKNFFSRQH
Mu-type opioid receptor, sequence (P35372 whole entry): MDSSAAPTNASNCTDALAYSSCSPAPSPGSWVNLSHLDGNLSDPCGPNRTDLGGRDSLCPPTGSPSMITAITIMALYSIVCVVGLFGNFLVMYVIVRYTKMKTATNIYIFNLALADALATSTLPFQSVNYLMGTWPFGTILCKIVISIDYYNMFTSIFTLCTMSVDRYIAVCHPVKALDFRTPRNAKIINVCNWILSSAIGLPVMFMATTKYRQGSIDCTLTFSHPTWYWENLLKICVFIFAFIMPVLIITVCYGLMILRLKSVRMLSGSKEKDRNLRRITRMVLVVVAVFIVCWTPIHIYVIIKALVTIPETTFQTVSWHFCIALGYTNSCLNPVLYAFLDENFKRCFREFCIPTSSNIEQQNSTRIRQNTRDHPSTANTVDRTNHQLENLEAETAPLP
Delta-type opioid receptor, sequence (P41143 whole entry): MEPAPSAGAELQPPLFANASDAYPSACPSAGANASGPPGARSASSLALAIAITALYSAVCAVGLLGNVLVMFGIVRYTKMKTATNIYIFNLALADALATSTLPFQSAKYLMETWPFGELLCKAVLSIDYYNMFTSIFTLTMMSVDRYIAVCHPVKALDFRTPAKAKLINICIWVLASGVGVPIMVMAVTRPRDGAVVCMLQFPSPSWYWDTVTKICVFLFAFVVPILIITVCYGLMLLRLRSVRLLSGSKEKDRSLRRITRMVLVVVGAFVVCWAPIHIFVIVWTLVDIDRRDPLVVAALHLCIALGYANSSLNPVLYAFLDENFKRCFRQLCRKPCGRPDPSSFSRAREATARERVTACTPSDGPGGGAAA
Cytochrome P450 2C9, sequence (P11712 whole entry): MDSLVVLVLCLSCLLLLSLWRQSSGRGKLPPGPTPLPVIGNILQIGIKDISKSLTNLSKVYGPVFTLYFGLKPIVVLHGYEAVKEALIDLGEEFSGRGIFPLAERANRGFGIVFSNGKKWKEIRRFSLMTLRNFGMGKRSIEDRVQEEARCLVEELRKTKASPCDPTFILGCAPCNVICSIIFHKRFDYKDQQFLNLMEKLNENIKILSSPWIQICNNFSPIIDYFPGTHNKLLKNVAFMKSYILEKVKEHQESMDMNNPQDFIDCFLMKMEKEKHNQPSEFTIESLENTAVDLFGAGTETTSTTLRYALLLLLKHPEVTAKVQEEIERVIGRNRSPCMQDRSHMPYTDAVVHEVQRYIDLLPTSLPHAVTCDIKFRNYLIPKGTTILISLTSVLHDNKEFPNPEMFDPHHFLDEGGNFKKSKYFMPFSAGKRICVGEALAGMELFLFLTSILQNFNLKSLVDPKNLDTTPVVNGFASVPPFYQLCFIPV
Dual specificity protein phosphatase 3, sequence (P51452 whole entry): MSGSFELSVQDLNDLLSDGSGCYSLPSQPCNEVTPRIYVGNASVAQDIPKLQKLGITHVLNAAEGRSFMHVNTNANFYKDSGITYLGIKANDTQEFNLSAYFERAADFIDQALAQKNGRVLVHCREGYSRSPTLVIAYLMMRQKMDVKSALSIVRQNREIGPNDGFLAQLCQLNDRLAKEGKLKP
Photoreceptor-specific nuclear receptor, sequence (Q9Y5X4 whole entry, the tested form may be a part): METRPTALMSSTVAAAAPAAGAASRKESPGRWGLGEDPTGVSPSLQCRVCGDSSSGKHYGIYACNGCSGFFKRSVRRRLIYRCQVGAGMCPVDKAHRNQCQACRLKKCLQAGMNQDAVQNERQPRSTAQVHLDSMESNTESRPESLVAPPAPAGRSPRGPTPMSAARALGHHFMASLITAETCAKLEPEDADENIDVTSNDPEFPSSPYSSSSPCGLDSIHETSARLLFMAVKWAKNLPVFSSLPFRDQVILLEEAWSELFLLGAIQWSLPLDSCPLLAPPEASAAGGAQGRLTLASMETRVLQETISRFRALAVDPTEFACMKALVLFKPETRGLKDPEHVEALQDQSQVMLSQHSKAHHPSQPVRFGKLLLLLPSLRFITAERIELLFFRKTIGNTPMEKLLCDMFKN
Nonstructural protein 1, sequence (Q194T2 whole entry): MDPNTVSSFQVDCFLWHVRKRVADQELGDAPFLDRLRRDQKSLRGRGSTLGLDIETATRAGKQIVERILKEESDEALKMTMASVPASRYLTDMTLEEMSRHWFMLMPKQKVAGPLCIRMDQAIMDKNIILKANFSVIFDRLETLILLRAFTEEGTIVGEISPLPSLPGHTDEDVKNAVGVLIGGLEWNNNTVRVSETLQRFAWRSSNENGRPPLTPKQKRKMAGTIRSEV

In the case of `CC1(C)c2ssc(=S)c2-c2ccccc2N1C(=O)CSC1=NCCS1`, the IC50 (MDCK) is reported as > 100 µM (active), the EC50 (Protein RecA) is reported as 4.27 µM (active) and the AC50 [1] is reported as 5.8 µM (active). For the same molecule, the AC50 (Cytochrome P450 1A2) was 2 µM (inconclusive), the AC50 (Cytochrome P450 2C19) was 0.891 µM (inconclusive) and the AC50 (Cytochrome P450 2C9) was 2.82 µM (inconclusive). The IC50 (Nonstructural protein 1) was 27.7 µM (active).

With `Cc1ccc(-n2cc(CNC(C)c3cnn(C)c3C)c(-c3ccc(F)cc3)n2)cc1` (stereo not given) the EC50 [2] was 0.376 µM (active), the EC50 (Mu-type opioid receptor) was 13 µM (inactive) and the EC50 [3] was > 92.5 µM (inactive). The EC50 [4] was 50 µM (inactive) and the EC50 [5] was > 0.1268 µM.

In the case of `Cn1c(SCC(=O)Nc2ccc3nc(SCC(=O)c4ccc(Cl)cc4)sc3c2)nnc1-c1ccc(N)cc1`, the IC50 [6] is reported as 40.6 µM (active).

In the case of `COc1ccc2c(c1)/C(=C/c1cnc[nH]1)C(=O)N2` [SU-9516], the EC50 [7] is reported as > 91.2 µM (inactive), the EC50 [8] is reported as > 180 µM (inactive) and the EC50 [9] is reported as > 91.2 µM (inactive). The AC50 (HEK293) was 34.2 µM (active), the EC50 (cells [10]) was > 350 µM (not active) and the EC50 (cells [11]) was > 350 µM (not active). For the same molecule, the EC50 [12] was 0.956 µM (active), the IC50 [13] was 71.8 µM (inactive) and the AC50 [14] was 0.995 µM (active). For the same molecule, the IC50 [15] was 1.19 µM (active), the EC50 [16] was > 160 µM (inactive) and the EC50 [17] was > 160 µM (inactive).
